Read-outs that look alike come from different tables or passages of the source.
Tests used:
[1] = tested on: small flower umbrella sedge; assay: Test B flooded paddy test; assay type: in vivo, Cyperus difformis; conditions: Cyperus difformis, 336 h, 1000 g ai/ha, visual rating, scale 0 to 100 (0 no effect, 100 complete control), 13 to 15 days, read-out: Sedge, Umbrella plant response rating
Method in brief: (§1)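 Each value is a visual 0–100 response rating taken against controls 13 to 15 days after treatment in the greenhouse. Plants received formulated chemical postemergence at the 1- to 4-leaf stage or, in flooded paddy, at the 2-leaf stage.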

blackgrass = assay: Test B postemergence herbicide test; assay type: in vivo, Alopecurus myosuroides; conditions: Alopecurus myosuroides, post-emergence, 336 h, postemergence, visual rating, scale 0 (no effect) to 100 (complete control), read-out: Blackgrass plant response rating
Method in brief: as §1

ducksalad = assay: Test B flooded paddy test; assay type: in vivo, Heteranthera limosa; conditions: Heteranthera limosa, 336 h, 1000 g ai/ha, visual rating, scale 0 to 100 (0 no effect, 100 complete control), 13 to 15 days, read-out: Ducksalad plant response rating
Method in brief: as §1

velvetleaf = assay: Test B pre-/postemergence herbicide test; assay type: in vivo, Abutilon theophrasti; conditions: Abutilon theophrasti, 336 h; for pest or weed control at 125 g/ha: 125 g ai/ha; for pest or weed control at 500 g/ha: 500 g ai/ha
Method in brief: (§2)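 Seeds were planted and treated preemergence with compounds formulated in a non-phytotoxic solvent mixture containing surfactant, while plants at the 1- to 4-leaf stage (2 to 18 cm) received postemergence sprays. Flooded paddy plants were grown to the 2-leaf stage. After 13 to 15 days in a greenhouse, injury was visually rated 0–100 against untreated controls.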

lambsquarters = assay: Test B pre-/postemergence herbicide test; assay type: in vivo, Chenopodium album; conditions: Chenopodium album, 336 h; for pest or weed control at 125 g/ha: 125 g ai/ha; for pest or weed control at 500 g/ha: 500 g ai/ha
Method in brief: as §2

cocklebur = assay: Test B pre-/postemergence herbicide test; assay type: in vivo, Xanthium strumarium; conditions: Xanthium strumarium; for pest or weed control at 125 g/ha: 125 g ai/ha; for pest or weed control at 500 g/ha: 500 g ai/ha
Method in brief: (§3)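 Evaluation is visual, comparing treated with control plants on a scale where 0 means no effect and 100 means full control. Treatments were preemergence, or postemergence on seedlings 2–18 cm tall, and held 13–15 days in the greenhouse.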

rice = assay: Test B flooded paddy test; assay type: in vivo, Oryza sativa; conditions: Oryza sativa, 336 h, 1000 g ai/ha, visual rating, scale 0 to 100 (0 no effect, 100 complete control), 13 to 15 days, read-out: Rice plant response rating
Method in brief: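 Visual ratings, 0 (no effect) to 100 (complete control), made versus controls after 13–15 d greenhouse. Paddy plants treated at 2-leaf stage; postemergence plants at 1- to 4-leaf stage, 2–18 cm tall.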

wheat = assay: Test B postemergence herbicide test; assay type: in vivo, Triticum aestivum; conditions: Triticum aestivum, post-emergence, 336 h, postemergence, 500 g ai/ha; visual rating, scale 0 (no effect) to 100 (complete control); read-out: Wheat plant response rating
Method in brief: (§4)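 Scale 0–100: zero equals no visible effect, 100 complete control, judged by eye relative to controls. Timing: 13 to 15 days in greenhouse post-treatment. Growth stage at spraying: two leaves (paddy) or one to four leaves, 2–18 cm (postemergence).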

wild oat = assay: Test B postemergence herbicide test; assay type: in vivo, Avena fatua; conditions: Avena fatua, post-emergence, 336 h, postemergence, visual rating, scale 0 (no effect) to 100 (complete control), read-out: Oat, Wild plant response rating
Method in brief: as §4

giant foxtail = assay: Test B pre-/postemergence herbicide test; assay type: in vivo, Setaria faberi; conditions: Setaria faberi, 336 h; for pest or weed control at 125 g/ha: 125 g ai/ha; for pest or weed control at 500 g/ha: 500 g ai/ha
Method in brief: as §2

Surinam grass = assay: Test B pre-/postemergence herbicide test; assay type: in vivo, Urochloa decumbens; conditions: Urochloa decumbens; for pest or weed control at 125 g/ha: 125 g ai/ha; for pest or weed control at 500 g/ha: 500 g ai/ha
Method in brief: as §2

barnyardgrass [2] = assay: Test B flooded paddy test; assay type: in vivo, Echinochloa crus-galli; conditions: Echinochloa crus-galli, 336 h, 1000 g ai/ha, visual rating, scale 0 to 100 (0 no effect, 100 complete control), 13 to 15 days, read-out: Barnyardgrass plant response rating
Method in brief: as §1

pigweed = assay: Test B pre-/postemergence herbicide test; assay type: in vivo, Amaranthus retroflexus; conditions: Amaranthus retroflexus, 336 h; for pest or weed control at 125 g/ha: 125 g ai/ha; for pest or weed control at 500 g/ha: 500 g ai/ha
Method in brief: as §2

barnyardgrass [3] = assay: Test B pre-/postemergence herbicide test; assay type: in vivo, Echinochloa crus-galli; conditions: Echinochloa crus-galli; for pest or weed control at 125 g/ha: 125 g ai/ha; for pest or weed control at 500 g/ha: 500 g ai/ha
Method in brief: as §3

morningglory = assay: Test B pre-/postemergence herbicide test; assay type: in vivo, Ipomoea coccinea; conditions: Ipomoea, 336 h; for pest or weed control at 125 g/ha: 125 g ai/ha; for pest or weed control at 500 g/ha: 500 g ai/ha
Method in brief: as §3

[4] = post-emergence, postemergence, visual rating, scale 0 (no effect) to 100 (complete control), read-out: Velvetleaf plant response rating
[5] = post-emergence, postemergence, visual rating, scale 0 (no effect) to 100 (complete control), read-out: Lambsquarters plant response rating
[6] = post-emergence, postemergence, visual rating, scale 0 (no effect) to 100 (complete control), read-out: Cocklebur plant response rating
[7] = post-emergence, postemergence, visual rating, scale 0 (no effect) to 100 (complete control), read-out: Foxtail, Giant plant response rating
[8] = post-emergence, postemergence, visual rating, scale 0 (no effect) to 100 (complete control), read-out: Surinam Grass plant response rating
[9] = post-emergence, postemergence, visual rating, scale 0 (no effect) to 100 (complete control), read-out: Pigweed plant response rating
[10] = post-emergence, postemergence, visual rating, scale 0 (no effect) to 100 (complete control), read-out: Barnyardgrass plant response rating
[11] = post-emergence, postemergence, visual rating, scale 0 (no effect) to 100 (complete control), read-out: Morningglory plant response rating

## CCn1nc(C(C)(C)C)cc1C(=O)Nc1cccc(C(=O)OC)n1 [Compound 143, methyl 6-[[[3-(1,1-dimethylethyl)-1-ethyl-1H-pyrazol-5-yl]carbonyl]amino]-2-pyridinecarboxylate]
[1]
  pest or weed control at 1000 g/ha: 0%
blackgrass; 125 g ai/ha
  pest or weed control at 125 g/ha: 0%
blackgrass; 500 g ai/ha
  pest or weed control at 500 g/ha: 0%
ducksalad
  pest or weed control at 1000 g/ha: 0%
velvetleaf; [4]
  pest or weed control at 125 g/ha: 0%
  pest or weed control at 500 g/ha: 20%
velvetleaf; pre-emergence, visual rating 0-100, 0 no effect, 100 complete control, read-out: Plant response rating, Velvetleaf
  pest or weed control at 500 g/ha: 0%
velvetleaf; pre-emergence, preemergence, 0 to 100 scale, 0 is no effect, 100 is complete control, read-out: Plant response rating, Velvetleaf
  pest or weed control at 125 g/ha: 0%
lambsquarters; [5]
  pest or weed control at 125 g/ha: 0%
  pest or weed control at 500 g/ha: 20%
lambsquarters; pre-emergence, visual rating 0-100, 0 no effect, 100 complete control, read-out: Plant response rating, Lambsquarters
  pest or weed control at 500 g/ha: 0%
lambsquarters; pre-emergence, preemergence, 0 to 100 scale, 0 is no effect, 100 is complete control, read-out: Plant response rating, Lambsquarters
  pest or weed control at 125 g/ha: 0%
cocklebur; [6]
  pest or weed control at 125 g/ha: 0%
  pest or weed control at 500 g/ha: 0%
cocklebur; pre-emergence, visual rating 0-100, 0 no effect, 100 complete control, read-out: Plant response rating, Cocklebur
  pest or weed control at 500 g/ha: 0%
cocklebur; pre-emergence, preemergence, 0 to 100 scale, 0 is no effect, 100 is complete control, read-out: Plant response rating, Cocklebur
  pest or weed control at 125 g/ha: 0%
rice
  plant injury at 1000 g/ha: 0%
wheat
  plant injury at 500 g/ha: 0%
Wild oat; 125 g ai/ha
  pest or weed control at 125 g/ha: 0%
Wild oat; 500 g ai/ha
  pest or weed control at 500 g/ha: 20%
Giant foxtail; [7]
  pest or weed control at 125 g/ha: 0%
  pest or weed control at 500 g/ha: 0%
Giant foxtail; pre-emergence, visual rating 0-100, 0 no effect, 100 complete control, read-out: Plant response rating, Foxtail, Giant
  pest or weed control at 500 g/ha: 0%
Giant foxtail; pre-emergence, preemergence, 0 to 100 scale, 0 is no effect, 100 is complete control, read-out: Plant response rating, Foxtail, Giant
  pest or weed control at 125 g/ha: 0%
Surinam grass; [8]
  pest or weed control at 125 g/ha: 10%
  pest or weed control at 500 g/ha: 10%
Surinam grass; pre-emergence, visual rating 0-100, 0 no effect, 100 complete control, read-out: Plant response rating, Surinam Grass
  pest or weed control at 500 g/ha: 0%
Surinam grass; pre-emergence, preemergence, 0 to 100 scale, 0 is no effect, 100 is complete control, read-out: Plant response rating, Surinam Grass
  pest or weed control at 125 g/ha: 0%
Barnyardgrass [2]
  pest or weed control at 1000 g/ha: 0%
pigweed; [9]
  pest or weed control at 125 g/ha: 0%
  pest or weed control at 500 g/ha: 20%
pigweed; pre-emergence, visual rating 0-100, 0 no effect, 100 complete control, read-out: Plant response rating, Pigweed
  pest or weed control at 500 g/ha: 0%
pigweed; pre-emergence, preemergence, 0 to 100 scale, 0 is no effect, 100 is complete control, read-out: Plant response rating, Pigweed
  pest or weed control at 125 g/ha: 0%
Barnyardgrass [3]; [10]
  pest or weed control at 125 g/ha: 0%
  pest or weed control at 500 g/ha: 0%
Barnyardgrass [3]; pre-emergence, visual rating 0-100, 0 no effect, 100 complete control, read-out: Plant response rating, Barnyardgrass
  pest or weed control at 500 g/ha: 0%
Barnyardgrass [3]; pre-emergence, preemergence, 0 to 100 scale, 0 is no effect, 100 is complete control, read-out: Plant response rating, Barnyardgrass
  pest or weed control at 125 g/ha: 0%
morningglory; [11]
  pest or weed control at 125 g/ha: 0%
  pest or weed control at 500 g/ha: 0%
morningglory; pre-emergence, visual rating 0-100, 0 no effect, 100 complete control, read-out: Plant response rating, Morningglory
  pest or weed control at 500 g/ha: 0%
morningglory; pre-emergence, preemergence, 0 to 100 scale, 0 is no effect, 100 is complete control, read-out: Plant response rating, Morningglory
  pest or weed control at 125 g/ha: 0%

Reference: patent US20060069132A1, “Azolecarboxamide herbicides” (priority 2004, published 2006)
